Several values for one entry are separate records, joined by “and”; a condition that tells them apart may be missing. Equal entries are not always repeated. Entries after “also recorded” stand apart in the source; their conditions may differ. Where no end group is shown, it is not given here.
B1: GDNF: Glial cell line-derived neurotrophic factor, activates the GDNF pathway (protein, UniProt P39905 78-211, looked up)
Glial cell line-derived …: SPDKQMAVLPRRERNRQAAAANPENSRGKGRRGQRGKNRGCVLTAIHLNVTDLGLGYETKEELIFRYCSGSCDAAETTYDKILKNLSRNRRLVSDKVGQACCRPIAFDDDLSFLDDNLVYHILRKHSAKRCGCI

Columns and labels:
Assay type in all cases: cell-based, human
[1] = system: MGE progenitor cells; experiment: HD-DoE 12-factor experiment for stage 4 recipe, optimized for MEF2C; settings: for impact on expression of MEF2C: dynamic profile analysis, FIG. 20
Source text: These effectors are small molecules or proteins. They are commonly used during stepwise differentiation of stem cells to specific fates. The choice of the effectors was based on current literature on neural induction in forebrain region of developing brain and differentiation of stem cells to neural progenitors.
To evaluate the effectors, experiments with at least 8 factors were designed that can assess the response of cells to 48 or more different combinations of effectors in a range of concentrations. To analyze the models, we focused on expression of genes involved in development and patterning of the forebrain interneurons maturation including LHX6 (Yuan et al. (2018) Elife, 7:e37382), DLX5 (Wang et al. (2010) J. Neuroscience 30:5334-5345), ASCL1 (Shi et al. (2016) J. Biol. Chem. 291:13560-13570). At later stages we focused on interneuron maturation genes including Parvalbumin and absence of somatostatin (Horn and Nicoll (2018) Proc. Natl. Acad. Sci. 115:589-594). The impacts of each effector on gene expression level are defined by a parameter called factor contribution that is calculated for each effector during the modeling.
To identify the recipe of stage 4 of differentiation, 48 different combinations of effectors generated using Design-of-Experiments compression through D-optimality were robotically prepared. The effector combinations were prepared in a basal media and were subsequently added to the cells, which were then allowed to differentiate. Three days later RNA extraction was performed, and gene expression was obtained using quantitative PCR analysis. The data was normalized and modeled using partial least squares regression analysis to the effector design, resulting in the generation of gene-specific models, which after model tuning for maximal predictive power, provided explanation of the effectors ability to control the expression of individual genes, combinatorically, and individually. Solutions within the tested space could then be explored to address desirability. […] Valproic Acid can inhibit histone deaceylases and increase γ-aminobutyric acid (GABA). […] GDNF is the […] Glial cell line-derived neurotrophic factor and can activate the GDNF pathway.
To find the set of factors that have the potential to optimize MEF2C in this experiment, a new assessment was done through dynamic profile analysis with focus on maximal expression of MEF2C (FIG. 20).

[2] = system: forebrain-committed neural stem cells (stage 1 neural stem cells); experiment: HD-DoE 12-factor experiment for stage 2 recipe, optimized for NKX2-1; settings: model maximized for NKX2-1 / dynamic profile, FIG. 7 and 8
Method: To further guide the differentiation of forebrain-committed neural stem cells to ventral forebrain neural stem cells at stage 2, a HD-DoE experiment was performed for 3 days after termination of stage 1 treatment. At this time, we focused on maximum expression of NKX2-1 that is expressed in ventral forebrain region and minimum expression of PAX6 that is expressed in dorsal forebrain region. This 12-factor experiment included LDN193189, BMP7, PD0325901, MK2206, A8301, XAV939, CHIR99021, Purmorphamine, SANT-1, AGN193109, TTNPB and GSI-XX.

[3] = system: stage 2 neural stem cells; experiment: factor criticality analysis (dynamic profile analysis) of stage 3 recipe; set-up: unit not given here; settings: other five factors present; for expression level of DLX1 when the effector is removed: 220 with all six factors; for expression level of LHX6 when the effector is removed: 240 with all six factors; for expression level of ASCL1 when the effector is removed: 1650 with all six factors
Method: To assess the impact of the elimination of each validated factor, dynamic profile analysis was used and compared the expression level of genes of interest in absence of each finalized factor while others are present. […] In the stage 3 recipe, each of the six finalized factors were removed while the other five factors remained present and the expression levels of ASCL1, DLX1 and LHX6 were assessed compared to the presence of all six factors. […] As expected, in the absence of IGF-1, the value of DLX1 increases to 410, however, ASCL1 and LHX6 decreased to 1390 and 220, respectively.

[4] = system: stage 2 neural stem cells (cells treated with stage 1 and stage 2 media); experiment: HD-DoE experiment for stage 3 recipe, optimized for ASCL1; settings: for factor contribution on expression of ASCL1: positive, model optimized for maximum expression of ASCL1 at 1700, FIG. 9
Method: To further guide the cells to medial ganglionic eminence progenitor fate, an additional HD-DoE experiment was performed for 3 days on cells that were treated with stage 1 and stage 2 media for total of 6 days prior to start of the experiment. This experiment included 13 effectors, LDN193189, A8301, GNF5837, AZD3147, GSI-XX, Takinib, PD0325901, PD173074, BLU9931, IGF-1, MHY1485, Purmorphamine and Prostratin. In this model, we focused on maximum expression of genes expressed in neuronal progenitor cells in medial ganglionic eminence (MGE) region including ASCL1, LHX6 and DLX1 (Silberberg et al. (2016) Neuron 92:59-74). When the model was optimized for maximum expression of ASCL1 at 1700, A8301, GSI-XX, Purmorphamine and Takinib, which is an inhibitor of TAK1 pathway, had the highest factor contributions, 18.1, 14.1, 12.7 and 10.1 respectively. […]

[5] = system: stage 4 neural stem cells; experiment: HD-DoE 8-factor experiment for stage 5 recipe (Prostratin, Rosiglitazone, GSI-XX, Heparin, GW0742, N2, THI0019, GDNF), optimized for PVALB; settings: for impact on expression of PVALB: dynamic profile analysis, FIG. 24; for factor contribution on expression of PVALB: positive, model optimized for maximum expression of PVALB, FIG. 23
Method: To investigate effect of other factors on differentiation of forebrain-committed neural stem cells to PVALB interneuron cells, an additional HD-DoE experiment was performed for 3 days on cells that were treated with stage 1 to stage 4 media for total of 12 days prior to start of the experiment. This experiment included eight effectors, Prostratin, Rosiglitazone, GSI-XX, Heparin, GW0742, N2, THI0019, and GDNF. In this model, we focused on maximum expression of PVALB gene expressed in PVALB (+) interneurons (Nahar et al. (2021) Front. Psych. 12:679960). When model was optimized for maximum expression of PVALB, Prostratin, GW0742, N2, and GDNF had the highest factor contributions, 13.56, 19.499, 15.9 and 8.2 respectively (FIG. 23).
So, they were excluded in the recipe.

[6] = system: MGE progenitor cells; experiment: factor criticality analysis of stage 4 recipe; settings: FIG. 27
Method: (§1) To assess the impact of elimination of each validated factor, we again used dynamic profile analysis and compared the expression level of genes of interest in the absence of each finalized factor while others are present.
In the stage 4 recipe, each of five finalized factors were removed while the other four factors were present and expression levels of forebrain genes were assessed compared to the presence of all 5 factors. MEF2C was reported to determine the PVALB-precursors cell fate (Mayer et al. (2018) Nature 555:457-462). We optimize MEF2C expression at this stage. […] (FIG. 27).

[7] = system: stage 4 neural stem cells; experiment: factor criticality analysis of stage 5 recipe
Method: as §1
In the stage 5 recipe, each of seven finalized factors were removed while other factors were kept present and expression levels of PVALB and SST were assessed compared to the presence of all seven factors. […] 2-phospho-L-ascorbic acid, BDNF, IGF-1 were included in the stage 5 recipe (FIG. 28). […] Others were also found to increase the expression of somatostatin that was SST interneuron marker. So, they are excluded from the recipe and N2 was included in the stage 5 recipe (FIG. 29). […] Sodium pyruvate was included in the stage 5 recipe (FIG. 30).

[8] = system: cells after termination of stage 4 treatment; experiment: HD-DoE 8-factor experiment for stage 5 recipe (JQ1, Indolactam-V, Oleic acid, BDNF, IGF-1, 2-phospho-L-Ascorbic acid, Albumax, MK2206), optimized for PVALB
Source text: To further guide the differentiation of forebrain-committed neural stem cells to PVALB interneuron cells at stage 5, we performed a HD-DoE experiment for 3 days after termination of stage 4 treatment. At this time, we focused on maximum expression of PVALB that was expressed in Parvalbumin (+) interneurons and minimum expression of Somatostatin that is another type of interneurons. This 8-factor experiment included JQ1, Indolactam-V, Oleic acid, BDNF, IGF-1, 2-phospho-L-Ascorbic acid, Albumax, MK2206. […] Using dynamic profile analysis, we modified the model to achieve the maximum expression level of PVALB simultaneously and therefore 2-phospho-L-ascorbic acid, BDNF, IGF1 were included while MK2206, Albumax, and JQ1 are excluded (FIG. 22). Considering the model at different optimization settings for maximum differentiation of cells toward ventral forebrain, the recipe for stage 5 of differentiation included BDNF, IGF-1, 2-phospho-L-ascorbic acid from this HD-Doe experiment.

[9] = dynamic profile analysis, FIG. 10
[10] = positive impact, model optimized for maximal expression of MEF2C at 453, FIG. 19

Molecule	impact on expression of MEF2C [1]	factor contribution on expression of ASCL1 [4]	impact on expression of PVALB [5]	factor contribution on expression of PVALB [5]	factor contribution on expression of MEF2C [1, 10]	effect on PVALB expression [6]	effect on somatostatin expression [6]	other results
C[C@H](NC(=O)Cc1cc(F)cc(F)c1)C(=O)N[C@@H]1C(=O)N(C)c2ccccc2-c2ccccc21 [GSI-XX]	negative effect	14.1 and 14	negative impact	–	–	–	–	factor contribution on expression of MEF2C ([1]; significant negative effect, model optimized for maximal expression of MEF2C): 11.6; impact on expression of NKX2-1 [2]: increase its expression level; expression level of DLX1 when the effector is removed [3]: 50; expression level of LHX6 when the effector is removed [3]: 140; expression level of ASCL1 when the effector is removed [3]: 1200; impact on expression of ASCL1 [4, 9]: Positive impact; impact on expression of LHX6 [4, 9]: Positive impact
Cc1cc(SCc2sc(-c3ccc(C(F)(F)F)c(F)c3)nc2C)ccc1OCC(=O)O [GW0742]	–	–	–	19.499	–	–	–	–
O=[N+]([O-])c1ccc(Nc2nc(N3CCOCC3)nc(N3CCOCC3)n2)cc1 [MHY1458]	–	below 2	–	–	0.04	increase PVALB expression	–	–
CC(=O)O[C@@]12C[C@@H](C)[C@@]3(O)[C@@H](C=C(CO)C[C@]4(O)C(=O)C(C)=C[C@@H]34)[C@@H]1C2(C)C [Prostratin]	–	–	–	13.56	–	–	–	–
CCCC[C@@H](COC(=O)N(Cc1cccs1)Cc1cccs1)NC(=O)N[C@@H](CC(=O)OC)c1ccc2c(c1)OCO2 [THI0019]	–	–	negative impact	–	–	–	–	–
CCCC(CCC)C(=O)O [Valproic Acid, Valproic acid]	positive impact	–	–	–	12	contribute to PVALB expression	minimal increase	–
Heparin	–	–	negative impact	–	–	–	–	–
IGF-1: insulin-like growth factor 1, growth factor, IGF1 pathway agonist	negative impact	7	–	–	–	–	–	expression level of DLX1 when the effector is removed [3]: 410; expression level of LHX6 when the effector is removed [3]: 220; expression level of ASCL1 when the effector is removed [3]: 1390; effect on expression of somatostatin ([7]; FIG. 28): did not change; contribution to expression of PVALB (Parvalbumin) ([7]; FIG. 28-30): positive contribution; impact on expression of ASCL1 [4, 9]: positive effect; impact on expression of DLX1 [4, 9]: negative impact; impact on expression of LHX6 [4, 9]: positive effect; factor contribution on expression of PVALB ([8]; important input for maximum expression of PVALB, FIG. 21): 12.8; impact on expression of PVALB ([8]; model maximized for PVALB / dynamic profile, FIG. 21 and 22): increase its expression level; also recorded: positive impact
Substance P: 11 amino acid neuropeptide, member of the tachykinin neuropeptide family (RPKPQQFFGLM; ends and bridges not checked; UniProt P20366 58-68, looked up)	positive impact	–	–	–	9	–	decrease	effect on MEF2C expression [6]: increase
B1	positive impact	–	–	8.2	5	contribute to PVALB expression	minimal increase	–
